Experimental data: ChEMBL document CHEMBL4420076, “Amylin and calcitonin receptor agonist” (2017)
Numbered stars: 1 amine (or outer) side, 2 acyl side, 3 side chain; on linkers, the order of the positions; unused ones are H or OH. Peptide text beside a SMILES is read from it. * marks the point of attachment. C18 diacid = O=C(O)CCCCCCCCCCCCCCCCC(=O)*; C16 diacid = O=C(O)CCCCCCCCCCCCCCC(=O)*; γGlu = O=C(O)[C@H](CCC(=O)[*:2])N[*:1]

Legend:
[1] = Solubility in 100 mM glycylglycine buffer at pH 3.0 incubated for 18 hrs by UPLC analysis; assay type: physicochemical
[2] = Solubility in 100 mM bistrispropane buffer at pH 7.0 incubated for 18 hrs by UPLC analysis; assay type: physicochemical
Calcitonin receptor [3] = biological target: T1, Calcitonin receptor (Homo sapiens, UniProt P30988); assay: Agonist activity at human calcitonin receptor expressed in BHK570 cells assessed as increase in intracellular cAMP concentration incubated for 3 hrs in presence of 10% FBS by CRE luciferase reporter gene assay; assay type: functional, cell-based
T1 sequence (P30988 whole entry): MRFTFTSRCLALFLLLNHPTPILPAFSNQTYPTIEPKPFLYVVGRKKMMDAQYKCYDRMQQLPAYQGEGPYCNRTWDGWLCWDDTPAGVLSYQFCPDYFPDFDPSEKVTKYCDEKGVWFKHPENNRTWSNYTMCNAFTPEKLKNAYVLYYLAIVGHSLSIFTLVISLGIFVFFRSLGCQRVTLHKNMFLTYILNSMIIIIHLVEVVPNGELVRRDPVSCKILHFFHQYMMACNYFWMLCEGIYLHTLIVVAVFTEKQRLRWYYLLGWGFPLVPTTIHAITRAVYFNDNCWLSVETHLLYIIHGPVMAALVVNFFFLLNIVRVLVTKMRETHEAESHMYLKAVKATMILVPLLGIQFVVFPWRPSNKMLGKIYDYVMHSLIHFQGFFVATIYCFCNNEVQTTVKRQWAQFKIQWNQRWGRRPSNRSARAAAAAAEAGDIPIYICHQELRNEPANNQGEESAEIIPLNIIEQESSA

Calcitonin receptor [4] = biological target: T1, Calcitonin receptor; assay: Displacement of [125I]-labeled human calcitonin from human calcitonin receptor expressed in BHK tkts13 cell membranes incubated for 1 hr by scintillation proximity assay
[5] = biological target: T2, Amylin receptor AMY3; CALCR/RAMP3 (Homo sapiens, UniProt O60896+P30988); assay: Displacement of [125I]-labeled rat amylin from human amylin receptor expressed in BHK570 cell membranes co-expressing RAMP3 incubated for 120 mins by scintillation proximity assay
T2 sequence (P30988 whole entry): T1 sequence (P30988 whole entry)
T2 sequence (O60896 whole entry): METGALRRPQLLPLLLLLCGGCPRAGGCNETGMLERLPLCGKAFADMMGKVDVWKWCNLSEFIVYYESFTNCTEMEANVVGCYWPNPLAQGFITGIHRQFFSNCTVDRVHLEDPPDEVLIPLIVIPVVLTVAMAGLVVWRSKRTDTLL

[6] = biological target: T2, Amylin receptor AMY3; CALCR/RAMP3; assay: Agonist activity at human amylin receptor expressed in BHK570 cells co-expressing RAMP3 assessed as increase in intracellular cAMP concentration incubated for 3 hrs in presence of 10% FBS by CRE luciferase reporter gene assay; assay type: functional, cell-based
[7] = Solubility in 100 mM glycylglycine buffer at pH 5.0 incubated for 18 hrs by UPLC analysis; assay type: physicochemical
Rattus norvegicus [8] = assay: Reduction in food intake in Sprague-Dawley rat at 3 nmol/kg measured 24 to 48 hrs post dose relative to control; assay type: functional; design: scale not given: the % may be the effect or the level left
Rattus norvegicus [9] = assay: Reduction in food intake in Sprague-Dawley rat at 3 nmol/kg measured 0 to 24 hrs post dose relative to control; assay type: functional; design: scale not given: the % may be the effect or the level left
[10] = Stability in pH 7.5 buffer assessed as compound recovery at 1 uM by Thioflavin T based fluorescence assay; assay type: physicochemical; conditions: read-out: Drug recovery
[11] = biological target: T2, Amylin receptor AMY3; CALCR/RAMP3; assay: Agonist activity at human amylin receptor expressed in BHK570 cells co-expressing RAMP3 assessed as increase in intracellular cAMP concentration incubated for 3 hrs in absence of albumin by CRE luciferase reporter gene assay; assay type: functional, cell-based
[12] = Stability in pH 7.5 buffer assessed as lag time for fibril formation at 1 uM by Thioflavin T based fluorescence assay; assay type: physicochemical; conditions: pH 7.5, 1 µM
[13] = Solubility in 100 mM glycylglycine buffer at pH 4.0 incubated for 18 hrs by UPLC analysis; assay type: physicochemical
[14] = biological target: T3, Amylin receptor AMY3; CALCR/RAMP3 (Rattus norvegicus, UniProt P32214+Q9JJ73); assay: Displacement of [125I]-labeled rat amylin from rat amylin receptor expressed in BHK tkts13 cell membranes co-expressing RAMP3 incubated for 120 mins by scintillation proximity assay
T3 sequence (P32214 whole entry): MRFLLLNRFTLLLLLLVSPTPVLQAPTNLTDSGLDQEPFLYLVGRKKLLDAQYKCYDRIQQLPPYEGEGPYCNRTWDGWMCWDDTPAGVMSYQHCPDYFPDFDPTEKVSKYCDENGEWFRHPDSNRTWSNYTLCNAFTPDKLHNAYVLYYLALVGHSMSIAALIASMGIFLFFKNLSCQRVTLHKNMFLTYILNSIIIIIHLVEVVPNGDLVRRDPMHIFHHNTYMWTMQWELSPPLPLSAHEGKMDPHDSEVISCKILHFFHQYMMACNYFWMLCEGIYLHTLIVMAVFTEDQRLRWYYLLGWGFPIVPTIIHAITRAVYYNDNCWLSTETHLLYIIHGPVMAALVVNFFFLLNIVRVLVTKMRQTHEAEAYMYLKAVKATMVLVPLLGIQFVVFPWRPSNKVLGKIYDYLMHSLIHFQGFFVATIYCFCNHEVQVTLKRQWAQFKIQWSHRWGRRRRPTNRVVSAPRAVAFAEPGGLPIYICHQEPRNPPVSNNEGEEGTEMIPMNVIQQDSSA
T3 sequence (Q9JJ73 whole entry): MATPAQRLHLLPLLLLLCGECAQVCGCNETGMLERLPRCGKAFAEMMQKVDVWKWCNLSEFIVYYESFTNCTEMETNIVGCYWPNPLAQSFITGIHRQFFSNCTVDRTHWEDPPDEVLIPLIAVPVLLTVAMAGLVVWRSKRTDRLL

[15] = Solubility in 100 mM bistrispropane buffer at pH 8.0 incubated for 18 hrs by UPLC analysis; assay type: physicochemical
[16] = Solubility in 100 mM bistrispropane buffer at pH 7.5 incubated for 18 hrs by UPLC analysis; assay type: physicochemical
[17] = Solubility in 100 mM bistrispropane buffer at pH 6.5 incubated for 18 hrs by UPLC analysis; assay type: physicochemical
Calcitonin receptor [18] = biological target: T1, Calcitonin receptor; assay: Agonist activity at human calcitonin receptor expressed in BHK570 cells assessed as increase in intracellular cAMP concentration incubated for 3 hrs in absence of albumin by CRE luciferase reporter gene assay; assay type: functional, cell-based
[19] = Solubility in 100 mM bistrispropane buffer at pH 6.0 incubated for 18 hrs by UPLC analysis; assay type: physicochemical
Calcitonin receptor [20] = biological target: T1, Calcitonin receptor; assay: Displacement of [125I]-labeled human calcitonin from human calcitonin receptor expressed in BHK tkts13 whole cells incubated for 60 mins by scintillation proximity assay; assay type: cell-based

| Compound | solubility at 18 h [1] | solubility at 18 h [2] | EC50 (Calcitonin receptor [3]) | IC50 (Calcitonin receptor [4]) | IC50 [5] | EC50 [6] | solubility at 18 h [7] | Activity (Rattus norvegicus [8]) | Activity (Rattus norvegicus [9]) | remaining at 1 µM [10] | EC50 [11] | Time [12] | solubility at 18 h [13] | IC50 [14] | solubility at 18 h [15] | solubility at 18 h [16] | solubility at 18 h [17] | EC50 (Calcitonin receptor [18]) | solubility at 18 h [19] | IC50 (Calcitonin receptor [20]) |
| --- | --- | --- | --- | --- | --- | --- | --- | --- | --- | --- | --- | --- | --- | --- | --- | --- | --- | --- | --- | --- |
| CC(C)C[C@H](NC(=O)[C@H](C)NC(=O)[C@H](C)NC(=O)[C@@H](NC(=O)[C@H](CO)NC(=O)[C@H](CC(C)C)NC(=O)[C@H](CCC(=O)O)NC(=O)[C@H](CO)NC(=O)[C@H](C)NC(=O)CC[C@H](NC(=O)CCCCCCCCCCCCCCC(=O)O)C(=O)O)[C@@H](C)O)C(=O)NCC(=O)N[C@@H](CCCNC(=N)N)C(=O)N[C@@H](CC(C)C)C(=O)N[C@@H](CO)C(=O)N[C@@H](C)C(=O)N[C@@H](CCC(=O)O)C(=O)N[C@@H](CC(C)C)C(=O)N[C@@H](Cc1cnc[nH]1)C(=O)N[C@@H](CCC(=O)O)C(=O)N[C@@H](CC(C)C)C(=O)N[C@@H](C)C(=O)N[C@H](C(=O)N[C@@H](CC(C)C)C(=O)N1CCC[C@H]1C(=O)N[C@@H](CCCNC(=N)N)C(=O)N[C@H](C(=O)N[C@@H](CCC(=O)O)C(=O)N[C@H](C(=O)NCC(=O)N[C@@H](CO)C(=O)NCC(=O)N[C@@H](CO)C(=O)N1CCC[C@H]1C(N)=O)[C@@H](C)O)[C@@H](C)O)[C@@H](C)O ({C16 diacid-γGlu}-ASELSTAALGRLSAELHELATLPRTETGSGSP-NH2) | ≥ 200 µM | ≥ 200 µM | 0.002 nM | 0.024 nM | 0.037 nM | 0.004 nM | ≥ 200 µM | 10% | 66% | 100% | 0.018 nM | > 45 h | ≥ 200 µM | 0.022 nM | ≥ 200 µM | ≥ 200 µM | ≥ 200 µM | 0.015 nM | ≥ 200 µM | – |
| CC(C)C[C@H](NC(=O)[C@H](C)NC(=O)[C@H](C)NC(=O)[C@@H](NC(=O)[C@H](CO)NC(=O)[C@H](CC(C)C)NC(=O)[C@H](CCC(N)=O)NC(=O)[C@H](CO)NC(=O)[C@H](C)NC(=O)CC[C@H](NC(=O)CCCCCCCCCCCCCCCCC(=O)O)C(=O)O)[C@@H](C)O)C(=O)NCC(=O)N[C@@H](CCCNC(=N)N)C(=O)N[C@@H](CC(C)C)C(=O)N[C@@H](CO)C(=O)N[C@@H](C)C(=O)N[C@@H](CCC(=O)O)C(=O)N[C@@H](CC(C)C)C(=O)N[C@@H](Cc1cnc[nH]1)C(=O)N[C@@H](CCC(=O)O)C(=O)N[C@@H](CC(C)C)C(=O)N[C@@H](C)C(=O)N[C@H](C(=O)N[C@@H](CC(C)C)C(=O)N1CCC[C@H]1C(=O)N[C@@H](CCCNC(=N)N)C(=O)N[C@H](C(=O)N[C@@H](CCC(=O)O)C(=O)N[C@H](C(=O)NCC(=O)N[C@@H](CO)C(=O)NCC(=O)N[C@@H](CO)C(=O)N1CCC[C@H]1C(N)=O)[C@@H](C)O)[C@@H](C)O)[C@@H](C)O ({C18 diacid-γGlu}-ASQLSTAALGRLSAELHELATLPRTETGSGSP-NH2) | ≥ 200 µM | ≥ 200 µM | – | – | – | – | ≥ 200 µM | – | – | – | 0.009 nM | – | ≥ 200 µM | – | ≥ 200 µM | ≥ 200 µM | ≥ 200 µM | 0.011 nM | ≥ 200 µM | 0.605 nM |
